{"source": "patent US20070167450A1", "about": "“Agent for treating chronic pelvic pain syndrome” (Astellas Pharma Inc., priority 2003, published 2007)", "key": {"[1]": {"test_system": "Rat Antigen-Induced Cystitis Model", "experiment": "Rat antigen-induced cystitis model: peroxidase activity in bladder extract", "assay_type": "in vivo, Brown Norway (BN) female rats", "conditions": "bladder removed after 24 hours, saline group 0%, control group 100%", "protocol": "Efficacy of PDE 4 Inhibitors in Rat Antigen-Induced Cystitis Model\nAntigen sensitization was carried out by intraperitoneally administering physiological saline containing ovalbumin (OA, 1 mg/ml)-aluminum hydroxide gel (Alum, 20 mg/ml) to Brown Norway (BN) female rats, at a dose of 1 ml per animal for 3 continuous days. After completion of the sensitization, a urethral catheter was attached to each animal under anesthesia, 3% OA/physiological saline was injected into the bladder to induce cystitis, and the resulting animals were used as the control group. Also, a group in which physiological saline was injected into the bladder of each sensitized rat was used as the physiological saline group. A group in which compound A (3 mg/kg), roflumilast (3 mg/kg) or cilomilast (30 mg/kg) was orally administered 1 hour before the intravesical antigen injection was used as a compound A administration group, a roflumilast administration group or a cilomilast administration group. After 24 hours of the intravesical antigen injection, the bladder was removed under pentobarbital anesthesia, and bladder extract was prepared in accordance with the method of Malley et al. (Physiological Genomics, (USA), 2002, vol. 9, no. 1, pp. 5-13). Peroxidase activity in the bladder extract was measured in accordance with the method of Bradley et al. (The Journal of Investigative Dermatology, (England), March 1982, vol. 78, no. 3, pp. 206-9) using human myeloperoxidase (manufactured by Sigma) as the standard, and the results were expressed by defining the peroxidase activity of the physiological saline group as 0%, and the peroxidase activity of the control group as 100%.\nWhen antigen-induced cystitis was caused by carrying out antigen injection into the bladder of each of the sensitized BN rats, and peroxidase activity in the bladder tissue was measured as one of the indexes of cystitis, increase in the peroxidase activity in the bladder tissue was found in the control group. […]"}, "[2]": {"test_system": "Rat Hydrochloric Acid-Induced Cystitis Model", "experiment": "Rat hydrochloric acid-induced cystitis model: intravesical pressure recording", "assay_type": "in vivo, Brown Norway (BN) female rats", "conditions": "1 mg/kg orally once a day for 10 days after 0.4 N HCl into the bladder; measured after 11 days under urethane anesthesia", "protocol": "Efficacy of PDE 4 Inhibitors in Rat Hydrochloric Acid-Induced Cystitis Model\nA bladder disorder was induced by attaching a urethral catheter to each of Brown Norway (BN) female rats under ether anesthesia and injecting 0.4 N hydrochloric acid into the bladder (0.15 ml per one rat). Starting on the next of the bladder disorder induction, the compound A (1 mg/kg) or a vehicle (0.5% methyl cellulose aqueous solution) was orally administered once a day for 10 days, and respectively used as a compound A administration group and a control group. Also, a group in which physiological saline was injected into the bladder (0.15 ml per one rat), and the vehicle was orally administered once a day for 10 days starting on the next day, was used as a physiological saline group. After 11 days of the bladder disorder induction, each rat was fixed in the supine position under urethane anesthesia and equipped with a urethral catheter, and via its three-way cock, one end was used as the injection passage and the other end was connected to a pressure transducer (DX-312, manufactured by NIHON KOHDEN). Physiological saline was continuously injected into the bladder (50 μl/min) using an infusion pump (model 22, Harvard), and the intravesical pressure at that time was amplified by a pre-amplifier (AP-621G, manufactured by NIHON KOHDEN) and recorded using a recorder. […] In comparison with this, in the case of the control group, increase in the resting time intravesical pressure was observed, but increase in the bladder contraction pressure at the time of micturition was hardly found, and micturition frequency was high. In the compound A administration group, increase of the resting time intravesical pressure was inhibited, and increase in the intravesical pressure accompanied by the micturition reflex was also observed."}, "[3]": {"conditions": "3 mg/kg orally 1 hour before intravesical antigen (OA) injection"}}, "data": [{"compound": "O=C(Nc1c(Cl)cncc1Cl)c1ccc(OC(F)F)c(OCC2CC2)c1", "note": "[roflumilast]", "values": [{"measurement": "inhibition of the increase of peroxidase activity in the bladder tissue", "setting": "[1]; [3]", "value": 79, "unit": "%"}]}, {"compound": "CCn1c(=O)c(CCC(=O)O)c(-c2cccc(Cl)c2)c2ccc(C)nc21", "note": "[compound A, 3-[4-(3-chlorophenyl)-1-ethyl-7-methyl-2-oxo-1,2-dihydro-1,8-naphthyridin-3-yl]propanoic acid]", "values": [{"measurement": "increase in the intravesical pressure accompanied by the micturition reflex", "setting": "[2]", "value": "observed"}, {"measurement": "increase of the resting time intravesical pressure", "setting": "[2]", "value": "inhibited"}, {"measurement": "interval of the micturition reflex", "setting": "[2]", "value": "almost the same as that of the physiological saline administration group"}, {"measurement": "inhibition of the increase of peroxidase activity in the bladder tissue", "setting": "[1]; [3]", "value": 72, "unit": "%"}]}, {"compound": "COc1ccc([C@]2(C#N)CC[C@@H](C(=O)O)CC2)cc1OC1CCCC1", "note": "[cilomilast]", "values": [{"measurement": "inhibition of the increase of peroxidase activity in the bladder tissue", "setting": "[1]; 30 mg/kg orally 1 hour before intravesical antigen (OA) injection", "value": 68, "unit": "%"}]}]}
